Columns and labels:
[1] = system: LNCaP cells; assay: Evaluation of cell migration ability (cell migration assay); format: cell-based, Human; conditions: 5 μM, 3 days, compared to PI polyamide (control), FIGS. 9 and 10
Description: After culturing cells into which the PI polyamide (1) was introduced and cells into which the PI polyamide (control) was introduced for comparison, the migration ability of the cells was examined by a cell migration assay using a cell culture insert and a 8.0 μm pore size PET filter (manufactured by Becton Dickinson).
In particular, after fibronectin (manufactured by Sigma) diluted with PBS to 10 μg/ml was allowed to act on a culture dish for 30 minutes to form a lower filter, 700 μl of the Phenol-Red-containing RPMI 1640 medium of 3. (1) was added to a lower chamber.
The LNCaP cells were cultured for 3 days in the Phenol-Red-containing medium of 3. (1) to which each of the PI polyamides was added at 5 μM and divided into units of 5×10^4 cells, and each unit of cells was suspended in 300 μl of the Phenol-Red-containing medium of 3. (1) and added to the upper chamber. After the cells were cultured at 37° C. under the condition of 5% CO2, the filter was peeled off.
The cells on the lower filter were fixed by methanol for 30 minutes and then incubated for 30 seconds in Gimsa's stain solution (manufactured by Muto Pure Chemicals). Subsequently, the cells were observed by a microscope of 200 magnifications to count the number of cells, thereby evaluating the cell migration ability.

[2] = system: prostate cancer cells (LNCaP) tumor; assay: Effect of the PI polyamide on a tumor in nude mice injected with LNCaP; format: in vivo; conditions: tail vein 6 mg/kg once per week for 4 weeks, compared to PI polyamide (control), FIG. 11
Description: The effect of the PI polyamide on a tumor was confirmed.
(§1) To 7-week-old male nude mice (n=10), 3×10^6 prostate cancer cells (LNCaP) were subcutaneously injected at the right flank. A tumor size was monitored by caliper measurement every 3 days. When the tumor size reaches […], the PI polyamide (1) or the PI polyamide (control) dissolved in dH2O was injected from a tail vein at 6 mg/kg bodyweight (PI polyamide (1): n=4, PI polyamide (control): n=6).
(§2) The injection was performed once per week for 4 weeks and the tumor size was measured every week. After one week from the last injection, the nude mice were dissected to excise the tumors.

[3] = system: ACSL3 transcriptional regulatory region (AR response region); assay: Luciferase assay of AR activity in ACSL3 transcriptional regulatory region; format: cell-based, Human; conditions: LNCaP, 1 μM or 5 μM, DHT 100 nM, compared to same amount of PI polyamide (control), FIG. 6
Description: (§3) About 1 kb of AR binding site (ARBS) located 63 kb upstream of the ACSL3 transcription start point was extracted (SEQ ID NO:10) and insert into a luciferase vector (pGL3 promoter vector: Promega, Madison, Wis.). This vector was used for transfection of a prostate cancer cell (LNCaP) cultured for about 60 hours in the Phenol-Red-free medium of 3. (2) by using FuGENE (registered trademark) HD (Roche Applied Science) as a transection reagent in accordance with the protocol thereof.
(§4) After about 12 hours, androgen stimulation using 100 nM of DHT and introduction of the PI polyamide (1) or PI polyamide (control) (1 μM or 5 μM) were performed and followed by a luciferase assay. This test was conducted by using prostate cancer cells (LNCaP) incorporated with a PSA promoter region (SEQ ID NO:22) known to have AR response activity as a positive control for the luciferase vector.

[4] = system: ACSL3 protein; assay: Western blotting of ACSL3 protein from excised tumors; format: in vivo, Human; conditions: nude mice, tail vein 6 mg/kg once per week for 4 weeks, FIG. 12
Description: as §1, §2
FIG. 12 depicts a result of western blotting with an ACSL3 antibody of protein extracted using a lysis buffer (NP40 buffer) from the excised tumors (two individuals #1 and #2) (upper portion of FIG. 12; lower portion indicates expression of β-actin protein).

[5] = system: ACSL3 gene; assay: Examination of expression of ACSL3 gene by RT-PCR in LNCaP cells; format: cell-based, Human
Description: The expression of ACSL3 Gene was examined by RT-PCR in a cell into which each of the PI polyamides (1) to (3) was introduced. For comparison, the same examination was conducted for a cell into which the PI polyamide (control) was introduced.
The LNCaP cells were cultured for 3 days in the Phenol-Red-free medium of 3. (2) to which each of the PI polyamides was added at 5 μM. Subsequently, DHT (100 nM) of 4. was added into the medium to apply androgen stimulation.
After RNA is extracted from the cells by using Isogen (Nippon Gene) in accordance with a manual, cDNA was prepared by using PrimeScript (registered trademark) Reverse Transcriptase (manufactured by TaKaRa).
Each of the cDNAs prepared in 1) was used as a template DNA to examine with primers listed in Table 4 the presence/absence of expression of a fusion gene or an ERG gene in the prostate cancer cell into which each of the PI polyamides was introduced. In this RT-qPCR, Power SYBR (registered trademark) Green PCR Master Mix (manufactured by Applied Biosystems) was used.

[6] = system: PSA promoter region; assay: Luciferase assay of AR activity in PSA promoter region (positive control); format: cell-based, Human; conditions: LNCaP, compared to same amount of PI polyamide (control), FIG. 7
Description: as §3, §4

[7] = system: LNCaP cells; assay: Evaluation of proliferation ability by MTS assay; format: cell-based, Human
Description: After treatment with the PI polyamide (1) or the PI polyamide (control) for comparison, the proliferation ability of these cells were examined by MTS assay.
In particular, the LNCaP cells were seeded on a 96-well plate to 5×10^3 cells in total and cultured for 3 days in the Phenol-Red-free medium of 3. (2) to which each of the PI polyamides was added at 1 μM or 5 μM. Subsequently, DHT (100 nM) of 4. was added into the medium to apply androgen stimulation. After the stimulation, each of the cells were cultured for 24, 48, or 96 hours.
After the specified stimulation time, 10 μl of an MTS reagent (Cell Titer 96 AQueous One Solution Cell Proliferation Assay, Promega, Madison Wis.) was added to the cells before incubation for 1 hour. Subsequently, the absorbance (490 nm) of the cells was measured and the numbers of the cultured cells were examined to evaluate the cell proliferation ability.

[8] = system: Oct1 oligo DNA (Oct1 gene binding sequence, SEQ ID NO:1); assay: DNA Binding Assay (gel electrophoretic pattern); conditions: 5 μl of 0.2 mM PI polyamide mixed with 15 μl hairpin double strand DNA, 37° C. 1 hour
Description: For each of the PI polyamides (1) to (3) (three types) generated in 5, a DNA Binding Assay of the following steps 1) and 2) was performed to confirm binding to the Oct1 gene binding sequence (SEQ ID NO:1). The PI polyamide (control) was also examined in terms of the presence/absence of binding to the Oct1 gene binding sequence (SEQ ID NO:1).
1) Molecules (50-base) were created that have Oct1 oligo DNA including the same base sequence as the Oct1 gene binding sequence (SEQ ID NO:1) labelled with FITC, and the oligo at a final concentration of 1 μM was heated to 100° C. in an annealing buffer (20 mM Tris-HCl, 2 mM EDTA, 200 mM NaCl). The oligo was cooled for 2 hours in stages to 30° C. As a result, the Oct1 oligo DNA underwent self-annealing and forms a double strand in a hairpin shape.
2) 15 μl of solution containing the hairpin-shaped double strand DNA of 1) was mixed with 5 μl of each of the 0.2 mM PI polyamides (1) to (3) and PI polyamide (control) and incubated at 37° C. for 1 hour to acquire a mixed solution.
3) The mixed solution of 2) was electrophoresed in 5-20% acrylamide gel (TBE buffer) and an electrophoretic pattern was monitored with LAS 4000 (manufactured by GE Healthcare Japan) to determine the presence/absence of binding from a difference in the electrophoretic pattern.

[9] = 5 μM, 3 days, androgen stimulation DHT 100 nM, FIG. 4
[10] = concentration and time not stated

| Compound | cell migration ability (invasive potential) [1] | formation of tumor [2] | AR activity in the ACSL3 transcriptional regulatory region (AR response region) [3] | expression of the ACSL3 protein in excised tumors [4] | expression of the ACSL3 gene ([5]; 5 μM (1 μM or 5 μM tested), androgen stimulation, FIG. 5) | expression of the ACSL3 gene [5, 9] | AR activity in the PSA promoter region [6] | cell proliferation ([7]; 5 μM, after 48 hours of incubation, compared to PI polyamide (control) 5 μM, FIG. 8) | cell proliferation ([7]; 5 μM, after 96 hours of incubation, FIG. 8) | binding to the Oct1 oligo DNA (presence/absence) [8] | cell proliferation [7, 10] |
| --- | --- | --- | --- | --- | --- | --- | --- | --- | --- | --- | --- |
| CC(=O)Nc1cc(C(=O)Nc2cc(C(=O)NCCC(=O)Nc3cn(C)c(C(=O)Nc4cc(C(=O)Nc5cc(C(=O)NCCCC(=O)Nc6cc(C(=O)Nc7cn(C)c(C(=O)Nc8cc(C(=O)NCCC(=O)Nc9cn(C)c(C(=O)Nc%10cc(C(=O)NCCC(=O)NCCCN(C)C)n(C)c%10)n9)n(C)c8)n7)n(C)c6)n(C)c5)n(C)c4)n3)n(C)c2)n(C)c1 [PI polyamide (1), AcPyPyβImPyPyγPyImPyβImPyβDp] | significantly inhibited | remarkably inhibited | significantly reduces | remarkably inhibited | particularly inhibited | inhibited | no significant difference | significantly inhibited | further significantly inhibited |  |  |
| AcPyPyPyImβImγPyβPyImβImβDp [PI polyamide (control), reference compound] |  |  |  | expressed |  | not inhibited |  |  |  | no binding occurs |  |
| CC(=O)Nc1cn(C)c(C(=O)Nc2cc(C(=O)NCCC(=O)Nc3cc(C(=O)Nc4cc(C(=O)Nc5cc(C(=O)NCCCC(=O)Nc6cc(C(=O)Nc7cc(C(=O)Nc8cc(C(=O)NCCC(=O)Nc9cn(C)c(C(=O)Nc%10cc(C(=O)NCCC(=O)NCCCN(C)C)n(C)c%10)n9)n(C)c8)n(C)c7)n(C)c6)n(C)c5)n(C)c4)n(C)c3)n(C)c2)n1 [PI polyamide (2), AcImPyβPyPyPyγPyPyPyβImPyβDp] | suppressed in the same way |  |  |  |  | inhibited |  |  |  |  | suppressed in the same way |
| CC(=O)Nc1cc(C(=O)Nc2cc(C(=O)NCCC(=O)Nc3cc(C(=O)Nc4cc(C(=O)Nc5cc(C(=O)NCCCC(=O)Nc6cn(C)c(C(=O)Nc7cc(C(=O)Nc8cc(C(=O)NCCC(=O)Nc9cc(C(=O)Nc%10cc(C(=O)NCCC(=O)NCCCN(C)C)n(C)c%10)n(C)c9)n(C)c8)n(C)c7)n6)n(C)c5)n(C)c4)n(C)c3)n(C)c2)n(C)c1 [PI polyamide (3), AcPyPyβPyPyPyγImPyPyβPyPyβDp] | suppressed in the same way |  |  |  |  | inhibited |  |  |  |  | suppressed in the same way |
